Experimental data reported in US20140357512A1, “HISTONE DEACETYLASE (HDAC) BIOMARKERS IN MULTIPLE MYELOMA” (priority 2013, published 2014).

Tested on: human myeloma cell line MM.1S
Experiment: SILAC acetylated-lysine peptide profiling, HDAC inhibitor vs DMSO (light/heavy ratio)
Type: cell-based
Description: An embodiment of the invention comprises utilizing the SILAC method in order to quantitate changes in protein expression between two or more populations of cells. The SILAC method is a technique based on mass spectrometry that detects differences in protein abundance among samples using non-radioactive isotopic labeling. The SILAC method is known in the art, and described in detail in Ong et al., “Stable Isotope Labeling by Amino Acids in Cell Culture, SILAC, as a Simple and Accurate Approach to Expression Proteomics”, Molecular & Cellular Proteomics, vol. 1, pp. 376-386 (2002), which is incorporated herein by reference in its entirety.
Briefly, the SILAC method involves growing two populations of cells in cell culture. The first population of cells is grown in growth media containing normal amino acids (“normal media”). The second population of cells is grown in media lacking a standard essential amino acid (such as lysine), but is then supplemented with a non-radioactive, isotopically labeled form of that essential amino acid (such as lysine labeled with ^13C atoms, rather than normal ^12C atoms), which is called “heavy media”. When the two populations of cells are each growing in the medium, they incorporate the amino acids into all of their proteins. The growth of cells maintained in the heavy media is no different from that in normal media. All peptides containing the heavy amino acids are heavier than their normal counterparts. The cells from each of the two populations of cells are lysed. The lysates from each of the two cell populations are then combined. The combined cell lysates are then analyzed by mass spectrometry. Pairs of chemically identical peptides of different stable isotope composition can be differentiated in a mass spectrometer due to their difference in mass. The ratio of peak intensities in the mass spectrum for such peptide pairs reflects the abundance ratio for the two proteins.
This example describes SILAC studies that were performed to compare the effects of three different HDAC inhibitors (Compound A, Compound B, and tubastatin A) to a control on a human multiple myeloma cell line. The HDAC inhibitors were also compared amongst themselves to determine differences in their effects.
A human myeloma cell line MM.1S was grown using either ^12C (light) or ^13C (heavy) lysine containing culture medium. The “heavy” cells were treated with DMSO as the control, and the “light” cells were treated with a single HDAC inhibitor at 37° C. for 6 hours. The heavy and light cells were lysed, and the lysates were mixed in 1:1 ratio and digested with the protease trypsin. The acetylated lysine containing peptides (due to the action of the HDAC inhibitor) in the digested peptide pool were captured by a non-specific anti-acetylated lysine antibody cocktail (the antibodies identify both light and heavy acetylated peptides), and subjected to mass spectrometry analysis in order to identify thousands of individual peptides.
Thousands of peptides were identified in pairs (^12C and ^13C) due to their known mass differences. The amino acid sequence and quantitative ratio (Light/Heavy) of a given peptide in two differentially treated cell lysates were then determined and annotated with their possible protein (gene) sources.
As stated above, three HDAC inhibitors (Compound A, Compound B, and Tubastatin A) were used. Thus, the SILAC method was performed three times, with a different HDAC inhibitor compared to a control each time. Accordingly, there are three pairs of quantitative data in the table below, i.e., Compound A:DMSO, Compound B:DMSO, and Tubastatin A:DMSO. A cut-off of 1.30 fold of change (increase or decrease) was then used to determine “changed” or “+” in the table, and any peptides with a fold of change less than 1.3 fold were determined to be “unchanged” or “0” in the table. Those peptides that were not identified were marked as “NA” in the table. […]

O=C(CCCCCCNC(=O)c1cnc(N(c2ccccc2)c2ccccc2)nc1)NO [Compound A, 2-(diphenylamino)-N-(7-(hydroxyamino)-7-oxoheptyl)pyrimidine-5-carboxamide]
light to heavy ratio (L/H ratio) of acetylated peptide […](ac)FLK (SEQ ID NO: 326) (Isoform 5 of Transcriptional regulator ATRX [812], ATRX, drug:DMSO): 0.00 log 2
light to heavy ratio (L/H ratio), log 2 scale, acetylated peptide YNDPIYVK(ac)LEK (SEQ ID NO: 764) (Isoform A of AP-1 complex subunit beta-1 [335], gene AP1B1, drug:DMSO): 0.93
light to heavy ratio (L/H ratio) of acetylated peptide K(ac)VLFTCFK (SEQ ID NO: 529) (Isoform Beta-2 of DNA topoisomerase 2-beta [749], gene TOP2B, inhibitor:DMSO): −0.42 log 2
light to heavy ratio (L/H ratio) of acetylated peptide K(ac)SSETLR (SEQ ID NO: 601) (Isoform CNPI of 23-cyclic-nucleotide 3-phosphodiesterase [177], gene CNP, inhibitor:DMSO): 0.46 log 2
light to heavy ratio (L/H ratio) of acetylated peptide MVAAAK(ac)YAR (SEQ ID NO: 324) (Isoform Heart of ATP synthase subunit gamma mitochondrial [55], ATP5C1, drug:DMSO): 0.00 log 2
light to heavy ratio (L/H ratio), log 2 scale, acetylated peptide VNK(ac)EVER (SEQ ID NO: 782) (Isoform Long of ES1 protein homolog mitochondrial [157], gene C21orf33, drug:DMSO): 1.00
light to heavy ratio (L/H ratio) of acetylated peptide EFHQAGK(ac)[…] (SEQ ID NO: 623) (Isoform Long of ES1 protein homolog mitochondrial [171], gene C21orf33, inhibitor:DMSO): 0.48 log 2
light to heavy ratio (L/H ratio) of acetylated peptide […](ac)R (SEQ ID NO: 588) (Isoform Long of Spectrin beta chain brain 1 [497], gene SPTBN1, inhibitor:DMSO): 0.44 log 2
light to heavy ratio (L/H ratio) of acetylated peptide NLHSK(ac)WLK (SEQ ID NO: 589) (Isoform Long of Spectrin beta chain brain 1 [1312], gene SPTBN1, inhibitor:DMSO): 0.44 log 2
light to heavy ratio (L/H ratio) of acetylated peptide VPNDK(ac)YYGAQTVR (SEQ ID NO: 625) (Isoform Mitochondrial of Fumarate hydratase mitochondrial [66], gene FH, inhibitor:DMSO): 0.49 log 2
light to heavy ratio (L/H ratio) of acetylated peptide MMVAGFK(ac)K (SEQ ID NO: 339) (Isoform Short of Heterogeneous nuclear ribonucleoprotein U [524], HNRNPU, drug:DMSO): 0.00 log 2
light to heavy ratio (L/H ratio) of acetylated peptide APQCLGK(ac)FIEIAAR (SEQ ID NO: 338) (Isoform Short of Heterogeneous nuclear ribonucleoprotein U [546], HNRNPU, drug:DMSO): 0.00 log 2
light to heavy ratio (L/H ratio) of acetylated peptide LLEQYK(ac)EESK (SEQ ID NO: 302) (Isoform Short of Heterogeneous nuclear ribonucleoprotein U [651], HNRNPU, drug:DMSO): 0.89 log 2
light to heavy ratio (L/H ratio) of acetylated peptide, log 2 scale (K(ac)[…] (SEQ ID NO: 246), Endoplasmin [270], HSP90B1): −0.54
light to heavy ratio (L/H ratio), log 2 scale, acetylated peptide (ac)[…](ac)GAGK (SEQ ID NO: 801) (KRR1 small subunit processome component homolog [11], gene KRR1, drug:DMSO): 1.00
light to heavy ratio (L/H ratio) of acetylated peptide, log 2 scale (KTPCGEGSK(ac)TWDR (SEQ ID NO: 245), 40S ribosomal protein S20 [75], SNORD54, RPS20): −0.69
light to heavy ratio (L/H ratio) of acetylated peptide IVADK(ac)DYSVTANSK (SEQ ID NO: 317) (L-lactate dehydrogenase B chain [82], LDHB, drug:DMSO): 1.00 log 2
L/H ratio of acetylated peptide (LAK(ac)LSDGVAVLK (SEQ ID NO: 484), 60 kDa heat shock protein mitochondrial [396], HSPD1): 0.61 log 2
L/H ratio of acetylated peptide (LALQK(ac)QLTK (SEQ ID NO: 495), Isoform 2 of Zinc finger protein 385C [103], ZNF385C): −1.00 log 2
L/H ratio of acetylated peptide IHLEIK(ac)QLNR (SEQ ID NO: 57) (LMAN1 [346], log 2 scale, drug vs DMSO): 0.00
L/H ratio of acetylated peptide (LMK(ac)YGDSLYR (SEQ ID NO: 499), Nucleolar GTP-binding protein 1 [118], GTPBP4): −0.78 log 2
L/H ratio of acetylated peptide LYK(ac)[…] (SEQ ID NO: 4) (LMNB1 [261], log 2 scale, drug vs DMSO): 0.00
L/H ratio of acetylated peptide […](ac)LENAR (SEQ ID NO: 58) (LMNB1 [271], log 2 scale, drug vs DMSO): 0.00
L/H ratio of acetylated peptide GFGYK(ac)GSCFHR (SEQ ID NO: 59) (LOC390956 [71], log 2 scale, drug vs DMSO): 0.00
L/H ratio of acetylated peptide (LTLDK(ac)LDVK (SEQ ID NO: 485), Phosphoglycerate kinase 1 [11], PGK1): 0.65 log 2
L/H ratio of acetylated peptide (LVDTGDK(ac)FR (SEQ ID NO: 478), Isoform Long of Spectrin beta chain brain 1 [1913], SPTBN1): −0.46 log 2
L/H ratio of acetylated peptide (LVSEK(ac)LASYQAAR (SEQ ID NO: 476), Isoform 2 of Myc proto-oncogene protein [163], MYC): −0.82 log 2
light to heavy ratio (L/H ratio) of acetylated peptide, log 2 scale (LYATMEK(ac)HK (SEQ ID NO: 251), Histone acetyltransferase p300 [1590], EP300): −0.43
light to heavy ratio (L/H ratio) of acetylated peptide AVLK(ac)[…] (SEQ ID NO: 262) (Laminin receptor-like protein LAMRL5 [89], SNORA6, RPSAP15, SNORA62, RPSA, drug:DMSO): 0.41 log 2
light to heavy ratio (L/H ratio) of acetylated peptide IHDVLCK(ac)LVEK (SEQ ID NO: 613) (Leucine-rich PPR motif-containing protein mitochondrial [864], gene LRPPRC, inhibitor:DMSO): 0.47 log 2
light to heavy ratio (L/H ratio) of acetylated peptide SYVSEK(ac)DVTSAK (SEQ ID NO: 628) (Leucine-rich PPR motif-containing protein mitochondrial [1332], gene LRPPRC, inhibitor:DMSO): 0.49 log 2
L/H ratio of acetylated peptide ICCQFDFK(ac)R (SEQ ID NO: 60) (MAN2A1 [373], log 2 scale, drug vs DMSO): 0.00
L/H ratio of acetylated peptide YLTNQK(ac)NSNSK(ac)NDR (SEQ ID NO: 17) (MEAF6 [69:74], log 2 scale, drug vs DMSO): 1.00
L/H ratio of acetylated peptide TLVLSDK(ac)HSPQK(ac)K (SEQ ID NO: 5) (MLL3 [2809:2814], log 2 scale, drug vs DMSO): 0.00
light to heavy ratio (L/H ratio) of acetylated peptide VHLSQK(ac)YK (SEQ ID NO: 343) (Matrin-3 [473], MATR3, SNHG4, drug:DMSO): 0.00 log 2
light to heavy ratio (L/H ratio) of acetylated peptide FLNK(ac)LAEER (SEQ ID NO: 342) (Matrin-3 [836], MATR3, SNHG4, drug:DMSO): 0.00 log 2
